# Experimental data as given in patent US10981932B2, “Macrocyclic indole derivatives” (Bayer Aktiengesellschaft, priority 2016, dated 2021).
# Where a name gives a salt, the structure may show the parent alone. Read-outs that look alike come from different tables or passages of the source.
# Key:
# SUDHL5 [1] = experiment: Induction of cytotoxicity (CellTiter-Glo, 5 h), SUDHL5
# SUDHL10 [2] = experiment: Induction of caspase-3/7 activity (Caspase-Glo 3/7), SUDHL10; type: cell-based; details: caspase-3/7 induction, SUDHL10 cells, 3 h treatment, median
# In short: (§1)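 A 3 h, 37 °C compound incubation precedes the Caspase-Glo 3/7 read. After subtracting medium-only signal, EC50s are fitted against the reference compound's maximal caspase induction.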
# SUDHL10 [3] = experiment: Induction of cytotoxicity (CellTiter-Glo, 5 h), SUDHL10
# MCL-1 = MCL-1 (Homo sapiens, UniProt Q07820); experiment: Protein-protein interaction assay MCL-1/Noxa BH3 peptide (MCL-1 assay), TR-FRET; type: binding; details: MBP-MCL-1 / Noxa BH3-derived peptide, median
# Sequence of MCL-1 (Q07820 whole entry): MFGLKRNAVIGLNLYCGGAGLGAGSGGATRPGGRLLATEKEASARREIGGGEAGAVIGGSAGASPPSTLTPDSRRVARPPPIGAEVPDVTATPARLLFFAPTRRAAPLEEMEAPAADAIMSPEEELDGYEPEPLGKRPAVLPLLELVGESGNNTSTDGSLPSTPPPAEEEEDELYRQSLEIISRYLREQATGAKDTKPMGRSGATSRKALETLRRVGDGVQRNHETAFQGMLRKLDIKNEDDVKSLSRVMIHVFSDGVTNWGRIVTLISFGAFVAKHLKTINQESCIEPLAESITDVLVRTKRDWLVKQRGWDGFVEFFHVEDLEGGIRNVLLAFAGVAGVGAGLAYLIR
# In short: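 Steady-state competition, MCL-1/Noxa BH3, TR-FRET readout; 1 nM MBP-MCL-1, 11-point dose series 0.1 nM–20 μM; overnight 4 °C equilibration; 4-parameter IC50.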
# SUDHL5 [4] = experiment: Induction of caspase-3/7 activity (Caspase-Glo 3/7), SUDHL5; type: cell-based; details: caspase-3/7 induction, SUDHL5 cells, 3 h treatment, median
# In short: as §1
# SUDHL5 [5] = experiment: Anti-proliferative effect (CellTiter-Glo, 72 h), SUDHL5; type: cell-based; details: SUDHL5 cells, antiproliferation, 72 h incubation, median, read-out: Antiproli SUDHL5 [M] (median)
# In short: (§2)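 Plate cells alongside a separate day 0 reference plate. Read the reference plate at once with CellTiter-Glo. Incubate treated cells 72 h at 37 °C, then read them the same way by luminescence.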
# A2780 = experiment: Anti-proliferative effect (CellTiter-Glo, 72 h), A2780; type: cell-based; details: A2780 cells, median, read-out: IC50 antiproliferation assay A2780 [M] (median)
# In short: as §2
# SUDHL10 [6] = experiment: Anti-proliferative effect (CellTiter-Glo, 72 h), SUDHL10; type: cell-based; details: SUDHL10 cells, antiproliferation, 72 h incubation, median, read-out: Antiproli SUDHL10 [M] (median)
# In short: as §2
# [7] = read-out: Cytotox SUDHL5 [M] (median), SUDHL5 cells, cytotoxicity induction, CellTiter-Glo, 5 h incubation, median
# [8] = Homo sapiens, SU-DHL10, 5 h, read-out: Cytotox SUDHL10 [M] (median), SUDHL10 cells, cytotoxicity induction, CellTiter-Glo, 5 h incubation, median
# [9] = read-out: Cytotox SUDHL10 [M] (median), SUDHL10 cells, cytotoxicity induction, CellTiter-Glo, 5 h incubation, median
# [10] = Homo sapiens, SU-DHL-5, 5 h, read-out: Cytotox SUDHL5 [M] (median), SUDHL5 cells, cytotoxicity induction, CellTiter-Glo, 5 h incubation, median
Structure (SMILES),"EC50 (SUDHL10 [2]; Homo sapiens, SU-DHL10, 3 h)",IC50 (MCL-1),EC50 (SUDHL5 [4]),"IC50 (SUDHL5 [5]; Homo sapiens, SU-DHL-5, 72 h)","IC50 (A2780; Homo sapiens, A2780, 72 h)","IC50 (SUDHL10 [6]; Homo sapiens, SU-DHL10, 72 h)",EC50 (SUDHL10 [2]),IC50 (SUDHL5 [5]),IC50 (SUDHL10 [6]),IC50 (A2780),"EC50 (SUDHL5 [4]; Homo sapiens, SU-DHL-5, 3 h)",IC50 (SUDHL5 [1]; [7]),IC50 (SUDHL10 [3]; [8]),IC50 (SUDHL10 [3]; [9]),IC50 (SUDHL5 [1]; [10])
"O=C(O)c1c(CCCOc2cccc3ccccc23)c2cccc3c2n1CCCCOCc1nn2c(c1-3)COCC2 (single isomer, unassigned) [Example 251, 1-[3-(naphthalen-1-yloxy)propyl]-4,5,6,7,12,13-hexahydro-9H,15H-[1,4]oxazino[4″,3″:1′,5]pyrazolo[4′,3′:9,10][1,6]oxazacycloundecino[8,7,6-hi]indole-2-carboxylic acid-N-ethylethanamine Salt]",> 33 µM,0.0484 µM,> 33 µM,6.23e-06 M,2.84e-05 M,5.15e-06 M,,,,,,> 3.3e-05 M,> 3.3e-05 M,,
"Cc1ccc2c(C(C)CCOc3cccc4ccccc34)c(C(=O)O)n3c2c1-c1c(C)nn(C)c1COCCCC3 (single isomer, unassigned) [Example 257, 1,3,4-trimethyl-7-[4-(naphthalen-1-yloxy)butan-2-yl]-1,10,11,12,13,15-hexahydropyrazolo[4′,3′:9,10][1,6]oxazacycloundecino[8,7,6-hi]indole-carboxylic Acid]",,0.669 µM,> 33 µM,,1.9e-05 M,,> 33 µM,2e-05 M,8.12e-06 M,,,> 3.3e-05 M,,> 3.3e-05 M,
"Cc1cc(OCCCc2c(C(=O)O)n3c4c(cccc24)-c2c(C)nn(C)c2COCCCC3)cc(C)c1Cl (single isomer, unassigned; enantiomer 1) [Example 010, 7-[3-(4-chloro-3,5-dimethylphenoxy)propyl]-1,3-dimethyl-1,10,11,12,13,15-hexahydropyrazolo[4′,3′:9,10][1,6]oxazacycloundecino[8,7,6-hi]indole-8-carboxylic acid-N-ethylethanamine Salt (Enantiomer 1)]",18.6 µM,0.00496 µM,6.62 µM,1.27e-05 M,2.06e-05 M,,,,3.91e-06 M,,,7.4e-06 M,2.27e-05 M,,
"Cc1cc(OCCCc2c(C(=O)O)n3c4c(cccc24)-c2c(C)nn(C)c2COCCC3)cc(C)c1Cl (single isomer, unassigned; enantiomer 1) [Example 014, 1-[3-(4-chloro-3,5-dimethylphenoxy)propyl]-9,11-dimethyl-5,6,8,9-tetrahydro-4H-pyrazolo[4′,3′:8,9][1,5]oxazecino[7,6,5-hi]indole-2-carboxylic acid-N-ethylethanamine Salt (Enantiomer 1)]",> 33 µM,0.00995 µM,,2.23e-05 M,,7.24e-06 M,,,,> 3.3e-05 M,26.6 µM,,> 3.3e-05 M,,2.27e-05 M
"Cc1nn(C)c2c1-c1cccc3c(CCCOc4ccc(F)c5ccccc45)c(C(=O)O)n(c13)CCCCOC2 (single isomer, unassigned; enantiomer 1) [Example 022, 7-{3-[(4-fluoronaphthalen-1-yl)oxy]propyl}-1,3-dimethyl-1,10,11,12,13,15-hexahydropyrazolo[4′,3′:9,10][1,6]oxazacycloundecino[8,7,6-hi]indole-8-carboxylic Acid-N-ethylethanamine Salt (Enantiomer 1)]",,0.00163 µM,,7.53e-06 M,2.59e-05 M,6.52e-06 M,17.6 µM,,,,4.19 µM,4.08e-06 M,,2.02e-05 M,
"Cc1cc2c(OCCCc3c(C(=O)O)n4c5c(cccc35)-c3c(C)nn(C)c3COCCCC4)cccc2cc1F (single isomer, unassigned; enantiomer 1) [Example 050, 7-{3-[(6-fluoro-7-methylnaphthalen-1-yl)oxy]propyl}-1,3-dimethyl-1,10,11,12,13,15-hexahydropyrazolo[4′,3′:9,10][1,6]oxazacycloundecino[8,7,6-hi]indole-8-carboxylic acid-N-ethylethanamine Salt (Enantiomer 1)]",18.8 µM,0.00882 µM,6.3 µM,1.41e-05 M,3.01e-05 M,7.75e-06 M,,,,,,4.45e-06 M,,9.61e-06 M,
"COCc1c2c(nn1C)COCCCCn1c(C(=O)O)c(CCCOc3cccc4ccccc34)c3cccc-2c31 (single isomer, unassigned; enantiomer 1) [Example 100, 3-(methoxymethyl)-2-methyl-7-[3-(naphthalen-1-yloxy)propyl]-2,10,11,12,13,15-hexahydropyrazolo[4′,3′:9,10][1,6]oxazacycloundecino[8,7,6-hi]indole-8-carboxylic acid-N-ethylethanamine Salt (Enantiomer 1)]",,0.0424 µM,> 33 µM,,> 3.3e-05 M,,> 33 µM,1.61e-05 M,1.71e-05 M,,,> 3.3e-05 M,,> 3.3e-05 M,

# Second part, led by results:
"EC50 (SUDHL10 [2]; Homo sapiens, SU-DHL10, 3 h)",IC50 (MCL-1),EC50 (SUDHL5 [4]),"IC50 (SUDHL5 [5]; Homo sapiens, SU-DHL-5, 72 h)","IC50 (A2780; Homo sapiens, A2780, 72 h)","IC50 (SUDHL10 [6]; Homo sapiens, SU-DHL10, 72 h)",EC50 (SUDHL10 [2]),IC50 (SUDHL5 [5]),IC50 (SUDHL10 [6]),IC50 (A2780),"EC50 (SUDHL5 [4]; Homo sapiens, SU-DHL-5, 3 h)",Structure (SMILES),IC50 (SUDHL5 [1]; [7]),IC50 (SUDHL10 [3]; [8]),IC50 (SUDHL10 [3]; [9]),IC50 (SUDHL5 [1]; [10])
,12 µM,> 33 µM,,,,> 33 µM,1.92e-05 M,1.16e-05 M,2.3e-05 M,,"Cc1ccc2c(C(C)CCOc3cccc4ccccc34)c(C(=O)O)n3c2c1-c1c(C)nn(C)c1COCCCC3 (single isomer, unassigned) [Example 258, 1,3,4-trimethyl-7-[4-(naphthalen-1-yloxy)butan-2-yl]-1,10,11,12,13,15-hexahydropyrazolo[4′,3′:9,10][1,6]oxazacycloundecino[8,7,6-hi]indole-8-carboxylic Acid]",> 3.3e-05 M,,> 3.3e-05 M,
,0.577 µM,31.3 µM,,,,> 33 µM,> 3.3e-05 M,2.96e-05 M,2.21e-05 M,,"Cc1ccc2c(C(C)CCOc3cccc4ccccc34)c(C(=O)O)n3c2c1-c1c(C)nn(C)c1COCCCC3 (single isomer, unassigned) [Example 259, 1,3,4-trimethyl-7-[4-(naphthalen-1-yloxy)butan-2-yl]-1,10,11,12,13,15-hexahydropyrazolo[4′3′:9,10][1,6]oxazacycloundecino[8,7,6-hi]indole-8-carboxylic Acid]",> 3.3e-05 M,,> 3.3e-05 M,
11.1 µM,0.00184 µM,3.04 µM,6.44e-06 M,3.04e-05 M,4.29e-06 M,,,,> 3.3e-05 M,,"Cc1ccc2c(CCCOc3cccc4ccccc34)c(C(=O)O)n3c2c1-c1c(C)nn(C)c1COCCC3 (single isomer, unassigned; enantiomer 1) [Example 025, (+)-9,11,12-trimethyl-1-[3-(naphthalen-1-yloxy)propyl]-5,6,8,9-tetrahydro-4H-pyrazolo[4′,3′:8,9][1,5]oxazecino[7,6,5-hi]indole-2-carboxylic acid-N-ethylethanamine Salt (Enantiomer 1)]",2.98e-06 M,,8.77e-06 M,
> 33 µM,0.234 µM,,2.97e-05 M,1.94e-05 M,1.81e-05 M,,,,,> 33 µM,"Cc1ccc2c(CCCOc3cccc4ccccc34)c(C(=O)O)n3c2c1-c1c(C)nn(C)c1COCCCC3 (single isomer, unassigned; enantiomer 1) [Example 028, 1,3,4-trimethyl-7-[3-(naphthalen-1-yloxy)propyl]-1,10,11,12,13,15-hexahydropyrazolo[4′,3′:9,10][1,6]oxazacycloundecino[8,7,6-hi]indole-8-carboxylic acid-N-ethylethanamine Salt (Enantiomer 1)]",,> 3.3e-05 M,,> 3.3e-05 M
